In ChEMBL document CHEMBL2346631, “Thiazolidine-2,4-diones: progress towards multifarious applications” (Bioorg Med Chem, 2013) one finds Activity data, which are given here for one compound.

For the test, the system named is Mus musculus. Put plainly: Hypoglycemic activity in KKAy mouse assessed as reduction of blood glucose level at 38 mg/kg/day, po relative to control. Further details: scale not given: the % may be the effect or the level left. The class given is functional.

Molecules are shown by their SMILES.

Turning to `Cc1oc(-c2ccccc2)nc1CCOc1ccc(CC2C(=O)NOC2=O)cc1` (stereo unspecified) [REGLITAZAR], the Activity is 25%.
